Among the data in ChEMBL document CHEMBL3638542, “Imidazo[1,2-a]pyridine derivatives: preparation and pharmaceutical applications” (2014) are IC50 values, retold here.

Molecules are shown by their SMILES. A value given as a limit tells only on which side of the number the result lay.

The target of the experiment is Histone deacetylase 1 (Homo sapiens, UniProt Q13547). As to the kind of experiment: BIOMOL Fluorescent-Based Assay: The assay has been carried out in 96 well format and the BIOMOL fluorescent-based HDAC activity assay has been applied. The reaction composed of assay buffer, containing 25 mM Tris pH 7.5, 137 mM NaCl, 2.7 mM KCl, 1 mM MgCl2, 1 mg/ml BSA, tested compounds, an appropriate concentration of HDAC1 enzyme, 500 uM Flur de lys generic substrate for HDAC1 enzyme and subsequently was incubated at room temperature for 2 h. Flur de lys Developer was added and the reaction was incubated for 10 min. Briefly, deacetylation of the substrate sensitizes it to the developer, which then generates a fluorophore. The fluorophore is excited with 360 nm light and the emitted light (460 nm) is detected on a fluorometric plate reader (Tecan Ultra Microplate detection system, Tecan Group Ltd.).
Sequence of Histone deacetylase 1 (Q13547 whole entry): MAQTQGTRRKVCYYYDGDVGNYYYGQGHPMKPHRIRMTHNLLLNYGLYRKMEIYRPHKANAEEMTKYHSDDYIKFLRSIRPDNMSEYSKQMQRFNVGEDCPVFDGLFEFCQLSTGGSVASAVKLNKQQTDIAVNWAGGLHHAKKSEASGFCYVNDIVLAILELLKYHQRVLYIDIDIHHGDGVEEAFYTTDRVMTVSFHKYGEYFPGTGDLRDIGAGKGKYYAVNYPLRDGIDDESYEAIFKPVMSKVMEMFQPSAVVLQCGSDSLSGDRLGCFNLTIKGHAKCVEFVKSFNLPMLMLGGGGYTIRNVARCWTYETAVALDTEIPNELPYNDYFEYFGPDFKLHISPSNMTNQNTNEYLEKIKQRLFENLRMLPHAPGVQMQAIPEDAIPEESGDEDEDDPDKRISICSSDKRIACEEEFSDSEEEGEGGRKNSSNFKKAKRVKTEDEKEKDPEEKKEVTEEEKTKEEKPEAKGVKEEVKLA
`CCCCc1nc2cc(/C=C/C(=O)NO)ccn2c1CN(CC)CC(C)CCC` (centres undefined): the concentration for half-maximal inhibition (IC50) is 60 nM.
Regarding `CCCCCCc1nc2cc(/C=C/C(=O)NO)ccn2c1NCCC(=O)N(C)CC#N`, the half-inhibitory concentration (IC50) was > 10000 nM.
On to `COCCNc1c(CCC(=O)O)nc2ccc(/C=C/C(=O)NO)cn12`, for which the IC50 is 320 nM.
Consider `CC(C)(C)Nc1c(C(=O)O)nc2ccc(/C=C/C(=O)NO)cn12`, for which the IC50 was > 10000 nM.

Usually IC50 stands for the concentration needed to halve the response being measured.
